Results published in patent publication US8445677B2, “Substituted pyrimidyl guanidine derivatives having anticancer activity” (University of Southern California, priority 2008, dated 2013).
“And” between values parts separate entries of the source, which are not always exact repeats. Equal entries are not always repeated.

Tests used:
Experiment in all cases: MTT cytotoxicity assay (Example 1)
HEY = type: cell-based, human; details: 72 h
From the text: (§1) Human breast cancer cells MDA-MB-435 were purchased from the American Type Culture Collection (Manassas, Va.). The HCT116 p53+/+ and HCT116 p53−/− cells were kindly provided by Dr. Bert Vogelstein (Johns Hopkins Medical Institutions, Baltimore, Md.). The human ovarian carcinoma cell line (HEY) which is naturally resistant to cisplatin, was kindly provided by Dr. Louis Dubeau, University of Southern California (USC) Norris Cancer Center, and NIH3T3 normal mouse fibroblast cells were kindly provided by Dr. Michael Press from USC. HEY and NIH3T3 cells were maintained as monolayer cultures in RPMI, HCT 116 cells in McCoy1s5A media and MDA-MB 435 in DMEM. Media were purchased from (Mediatech, Virginia) and supplemented with 10% fetal bovine serum (Gemini-Bioproducts, Woodland, Calif.), 2 mM L-glutamine and 5% Penicillin/streptomycin from Bio whittaker were purchased from VWR. Cells were incubated at 37° C. in a humidified atmosphere of 5% CO2. To remove the adherent cells from the flask for passaging and counting, cells were washed with PBS without calcium or magnesium, incubated with a small volume of 0.25% trypsin-EDTA solution (Sigma-Aldrich, St. Louis, Mo.) for 5-10 min, and washed with culture medium and centrifuged. All experiments were performed using cells at exponential growth stage. Cells were routinely checked for mycoplasma contamination using a PCR-based assay (Stratagene, Tex., USA).
(§2) Stock solutions (10 mM) of all compounds were prepared in DMSO and stored at −20° C. Further dilutions were made fresh in PBS or cell-culture media right before cell treatment.
(§3) Cytotoxicity was assessed by a 3-(4,s-dimethylthiazol-2-yl)-2,5-diphenyltetrazolium bromide (MTT) assay as previously described.^24 Briefly, cells were seeded in 96-well microtiter plates and allowed to attach overnight. Cells were subsequently treated with continuous exposure to the corresponding drug for 72 h. A MTT solution (at a final concentration of 0.5 mglml) was added to each well, and cells were incubated for 4 h at 37° C. After removal of the medium, DMSO was added and the absorbance was read at 570 nm. All assays were done in triplicate. The IC50 was then determined for each drug from a plot of log (drug concentration) versus percentage of cells killed.

MDA-MB-435 = type: cell-based, human
From the text: as §1, §2, §3

NIH3T3 = type: cell-based, mouse
From the text: as §1, §2, §3

HCT116 p53−/− = type: cell-based; details: MTT, 72 h
From the text: as §1, §2, §3

HCT116 p53+/+ = type: cell-based; details: MTT, 72 h
From the text: as §1, §2, §3

Row | SMILES | IC50 (HEY; Homo sapiens) | IC50 (MDA-MB-435; Homo sapiens, MDA-MB-435, 72 h) | IC50 (NIH3T3; Mus musculus, NIH3T3, 72 h) | IC50 (HCT116 p53−/−; Homo sapiens, HCT-116, 72 h) | IC50 (HCT116 p53+/+; Homo sapiens, HCT-116, 72 h) | IC50 (HCT116 p53−/−) | IC50 (HEY) | IC50 (MDA-MB-435; 72 h) | IC50 (HCT116 p53+/+) | IC50 (NIH3T3; 72 h)
1 | COC(=O)c1ccc(/C=N/Nc2nc3nonc3nc2Nc2ccccc2F)cc1 [Compound 1] | 10 µM | 5 µM | > 10 µM | 10 µM | > 10 µM |  |  |  |  | 
2 | COc1cc(/C=N/Nc2nc3nonc3nc2Nc2ccccc2F)ccc1O [Compound 3] | 5 µM | > 10 µM | > 10 µM | > 10 µM | > 10 µM |  |  |  |  | 
3 | COc1ccc(/C=N/Nc2nc3nonc3nc2Nc2ccc(F)cc2)cc1Br [Compound 4] | 10 µM | 10 µM | 6 µM | 3 µM | 4 µM | 2 µM |  |  |  | 
4 | Brc1ccc(/C=N/Nc2nc3nonc3nc2Nc2cccc(Br)c2)cc1 [Compound 5] | 2 µM | > 10 µM | 1 µM | 1.1 µM | 2 µM | 1.2 µM | 3 µM |  |  | 
5 | Oc1ccc(Br)cc1/C=N/Nc1nc2nonc2nc1Nc1ccc(Cl)cc1 [Compound 6] | < 3 µM | < 3 µM | 2 ± 0.5 µM | < 3 µM | < 3 µM | 1.6 ± 0.7 µM | 1.6 ± 0.6 µM | 4 ± 1 µM | 2.7 ± 0.6 µM | 
6 | COc1cc(/C=N/Nc2nc3nonc3nc2Nc2ccc(Cl)cc2)ccc1O [Compound 7] | 2 µM | > 10 µM | > 10 µM | 5.5 µM | > 10 µM |  |  |  |  | 
7 | Cc1ccccc1Nc1nc2nonc2nc1N/N=C/c1cc(Br)ccc1O [Compound 8] | 5 µM | > 10 µM | > 10 µM | 1.1 ± 0.4 µM | 2 µM |  |  |  |  | 
8 | COc1ccc(/C=N/Nc2nc3nonc3nc2Nc2ccccc2OC)cc1Br [Compound 9] | > 10 µM | > 20 µM | > 10 µM | > 10 µM | > 20 µM |  |  |  |  | 
9 | COc1ccccc1Nc1nc2nonc2nc1N/N=C/c1ccccc1F [Compound 10] | > 10 µM | > 10 µM | > 10 µM | > 10 µM | > 10 µM |  |  |  |  | 
10 | CCOC(=O)c1ccc(Nc2nc3nonc3nc2N/N=C/c2cccc3ccccc23)cc1 [Compound 11] | 4 µM | > 10 µM | 2 µM | 2 µM | > 10 µM |  |  |  |  | 
11 | Cc1ccccc1Nc1nc2nonc2nc1N/N=C/c1cccc2ccccc12 [Compound 12] | > 10 µM | > 10 µM | 10 µM | 10 µM | > 10 µM |  |  |  |  | 
12 | O=C(O)c1cc(-c2ccc(C=NNc3nc4nonc4nc3Nc3ccc(F)cc3)o2)ccc1Cl [Compound 13] | > 10 µM | > 10 µM | 10 µM | 7 µM | > 10 µM |  |  |  |  | 
13 | O=C(O)c1cc(-c2ccc(/C=N/Nc3nc4nonc4nc3Nc3ccccc3F)o2)ccc1Cl [Compound 14] | 10 µM | > 10 µM | > 10 µM | 7 µM | > 10 µM |  |  |  |  | 
14 | O=C(O)c1cccc(-c2ccc(C=NNc3nc4nonc4nc3Nc3ccc(F)cc3)o2)c1 [Compound 15] |  | < 3 µM | 10 µM |  |  |  |  | 2.8 µM and 3 µM |  | 
15 | Cc1cc(-c2ccc(/C=N/Nc3nc4nonc4nc3Nc3ccccc3F)o2)c(C)c([N+](=O)[O-])c1 [Compound 16] | 0.8 µM | 4 µM | 2 µM | 0.8 ± 0.1 µM | 1.5 µM |  |  |  |  | 
16 | O=C(O)c1cc(-c2ccc(/C=N/Nc3nc4nonc4nc3Nc3ccccc3F)o2)ccc1Cl [Compound 17] |  |  |  |  |  | > 10 µM | 15 µM | > 20 µM | 7 ± 1 µM | > 10 µM
17 | O=C(O)c1cc(-c2ccc(C=NNc3nc4nonc4nc3Nc3cccc(Br)c3)o2)ccc1O [Compound 18] | > 10 µM | > 10 µM | 11 µM | > 10 µM | > 10 µM |  |  |  |  | 

Row | SMILES | IC50 (HEY; Homo sapiens) | IC50 (MDA-MB-435; Homo sapiens, MDA-MB-435, 72 h) | IC50 (NIH3T3; Mus musculus, NIH3T3, 72 h) | IC50 (HCT116 p53−/−; Homo sapiens, HCT-116, 72 h) | IC50 (HCT116 p53+/+; Homo sapiens, HCT-116, 72 h) | IC50 (HCT116 p53−/−) | IC50 (HEY) | IC50 (MDA-MB-435; 72 h) | IC50 (HCT116 p53+/+) | IC50 (NIH3T3; 72 h)
18 | Cc1cccc(Nc2nc3nonc3nc2NN=Cc2ccc(-c3cccc(C(=O)O)c3)o2)c1 [Compound 20] | 8 µM | > 10 µM | 10 µM | > 10 µM | > 10 µM |  |  |  |  | 
19 | c1coc(CNc2nc3nonc3nc2NCc2ccco2)c1 [Compound 21] | > 20 µM | > 20 µM | > 10 µM | > 10 µM | > 20 µM |  |  |  |  | 
20 | O=C(O)c1ccccc1Nc1nc2nonc2nc1Nc1ccccc1C(=O)O [Compound 22] | > 10 µM | > 10 µM | > 10 µM | > 10 µM | > 10 µM |  |  |  |  | 
21 | c1cc(N2CCOCC2)ccc1Nc1nc2nonc2nc1Nc1ccc(N2CCOCC2)cc1 [Compound 23] | > 10 µM | > 10 µM | > 10 µM | > 10 µM | > 10 µM |  |  |  |  | 
22 | C1C2CC3CC1CC(C2)C3Nc1nc2nonc2nc1NC1C2CC3CC(C2)CC1C3 (stereo not shown) [Compound 24] | 8 ± 1.7 µM | 9 µM | 9 µM | 9 ± 1 µM | 6 µM |  |  |  | 8 µM | 
23 | CCCn1c(=O)c(C(=O)NNC(=O)COc2ccccc2)c(O)c2ccccc21 [Compound 25] | > 10 µM | > 20 µM | > 10 µM | > 10 µM | 10 µM |  |  |  |  | 
24 | CCCCCCc1nc2ccccc2c(=O)n1NC(=O)c1c(O)c2ccccc2n(CC)c1=O [Compound 26] | 20 µM | > 20 µM | 20 µM | > 10 µM | > 20 µM |  |  |  |  | 
25 | CCCc1nc2ccccc2c(=O)n1NC(=O)c1c(O)c2cccc3c2n(c1=O)CCC3 [Compound 27] | > 20 µM | > 20 µM | 12 µM | > 10 µM | > 20 µM |  |  |  |  | 
26 | O=C(Nn1c(Cc2ccccc2)nc2ccccc2c1=O)c1c(O)c2cccc3c2n(c1=O)CCC3 [Compound 28] | 19 µM | > 10 µM | > 10 µM | > 10 µM | > 20 µM |  | 15 µM |  |  | 
27 | CCCn1c(=O)c(C(=O)Nc2nnc(CC(C)C)s2)c(O)c2ccccc21 [Compound 29] | > 20 µM | > 20 µM | > 10 µM | > 10 µM | > 20 µM |  |  |  |  | 
28 | CCCCn1c(=O)c(C(=O)Nc2nnc(C)s2)c(O)c2ccccc21 [Compound 30] | 10 µM | 7 µM | 5 µM | 8 µM | 6 ± 3 µM |  | 14 µM |  |  | 
29 | C=CCn1c(=O)c(C(=O)Nc2nc(CC(=O)OCC)cs2)c(O)c2ccccc21 [Compound 31] | > 10 µM | > 10 µM | > 10 µM | > 10 µM | 20 µM |  |  |  |  | 
30 | CCCCn1c(=O)c(C(=O)Nc2nc(CC(=O)OCC)cs2)c(O)c2ccccc21 [Compound 32] | 15 µM | 20 µM | 8 µM | > 10 µM | 10 ± 1 µM |  |  |  |  | 
31 | C/C(=N\C(=N)Nc1nc(C)c2cc(C)ccc2n1)c1ccccc1C(=O)O [Compound 33] | 5 µM | 17 µM | 14 µM | 5 µM | 18 µM |  | 3 µM | 18 µM |  | 
32 | CCOc1ccc2nc(NC(=N)/N=C(\C)c3ccccc3C(=O)O)nc(C)c2c1 [Compound 34] | 7 µM | > 20 µM | > 10 µM | 10 µM | 20 µM |  |  |  |  | 
33 | COC(=O)/C=C1/N=C(Nc2nc3cc(C)ccc3o2)NC1=O [Compound 35] | 3.5 µM | 6 µM | 11 µM | 4.2 µM | 5 µM | 3.4 µM | 2 µM |  |  | 6 µM
